Source: US12016865B2, “Methods and pharmaceutical compositions for treating candida auris in blood” (Cormedix Inc., priority 2017, dated 2024)

Tests used:
[1] = test system: C. auris blood-borne pathogens; assay: treating C. auris blood-borne pathogens (FIG. 2); design: species or system Candida auris; details: blood-borne infection of C. auris
Source text: FIG. 2 is a table showing the effectiveness of treating a blood-borne infection of C. auris using taurolidine and/or taurolidine derivatives.

[2] = cited from earlier work
[3] = saturated solution in deionized water; cited from earlier work
[4] = water buffered at pH 7.2; cited from earlier work
[5] = stored at ambient conditions; cited from earlier work
[6] = test system: Microbes; details: microbes killed and toxins inactivated; cited from earlier work
[7] = cited from earlier work; remark: listed apart in the source

O=S1(=O)CCN(CN2CCS(=O)(=O)NC2)CN1 [taurolidine, 4,4′-methylene-bis(tetrahydro-1,2,4-thiadiazine)-1,1,1′,1′,-tetraoxide]
effect on C. auris blood-borne pathogens [1]: neutralize C. auris blood-borne pathogens | solubility in CHCl3 ([2]; CHCl3): insoluble | solubility in Dilute HCl ([2]; Dilute HCl): soluble | solubility in Dilute NaOH ([2]; Dilute NaOH): soluble | solubility in EtOH ([2]; EtOH): sparingly soluble | solubility in Water ([2]; Water, at 20 degrees C.): 1% | pH of saturated solution [3]: 7.4 | apparent partition coefficient between octanol and water [4]: approximately 0.13 | stability in the solid state [5]: acceptable stability | destruction time in vitro [6]: approximately 30 minutes | cumulative dose shown safe and well tolerated ([7]; cumulative doses): > 300 g | systemic dose shown safe and well tolerated ([7]; systemic doses): exceeding 40 g/day
